According to patent publication US5679680A, “α-substituted hydrazides having calpain inhibitory activity” (Warner-Lambert Company, priority 1995, dated 1997):

Legend:
[1] = biological target: T1, Human Calpain II (Homo sapiens, UniProt P17655); test: Calpain II activity, casein substrate, Coomassie microplate assay; assay type: biochemical; conditions: casein 0.5 mg/mL (Table I)
T1 sequence (P17655 1-700): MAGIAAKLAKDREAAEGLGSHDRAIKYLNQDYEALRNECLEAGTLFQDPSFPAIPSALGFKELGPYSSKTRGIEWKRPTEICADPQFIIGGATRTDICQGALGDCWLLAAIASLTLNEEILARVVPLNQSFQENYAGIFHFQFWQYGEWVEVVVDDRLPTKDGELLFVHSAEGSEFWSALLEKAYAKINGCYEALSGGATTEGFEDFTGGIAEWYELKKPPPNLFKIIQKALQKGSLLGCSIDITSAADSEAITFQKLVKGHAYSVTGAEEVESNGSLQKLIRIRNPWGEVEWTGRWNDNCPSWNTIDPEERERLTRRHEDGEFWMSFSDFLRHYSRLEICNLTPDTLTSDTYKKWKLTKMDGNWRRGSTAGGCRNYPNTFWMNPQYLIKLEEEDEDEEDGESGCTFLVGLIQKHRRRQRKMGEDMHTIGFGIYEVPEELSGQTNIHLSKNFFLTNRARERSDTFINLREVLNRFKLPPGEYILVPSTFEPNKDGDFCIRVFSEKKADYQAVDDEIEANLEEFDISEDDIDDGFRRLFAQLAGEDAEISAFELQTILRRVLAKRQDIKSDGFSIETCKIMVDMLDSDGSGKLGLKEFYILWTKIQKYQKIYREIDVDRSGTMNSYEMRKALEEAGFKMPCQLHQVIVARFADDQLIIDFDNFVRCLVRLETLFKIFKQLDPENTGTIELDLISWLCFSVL
T1 sequence (P04632 1-268 partner): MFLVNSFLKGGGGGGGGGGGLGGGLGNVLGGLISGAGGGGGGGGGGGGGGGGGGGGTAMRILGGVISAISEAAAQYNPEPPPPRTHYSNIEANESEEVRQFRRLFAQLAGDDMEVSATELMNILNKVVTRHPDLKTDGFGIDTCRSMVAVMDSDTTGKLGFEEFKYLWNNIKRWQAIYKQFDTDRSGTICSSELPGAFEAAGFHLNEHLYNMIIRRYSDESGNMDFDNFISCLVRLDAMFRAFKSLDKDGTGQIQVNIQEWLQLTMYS
Method: Assay of calpain activity: Calpain I was purified from human erythrocytes as described by Wang K K W, Roufogalis B D, and Villalobo A, Arch Biochem Biophys 1988;267: 317-327. Calpain activity was assayed in a 96-well microplate format (Buroker-Kilgore M and Wang K K W, Anal Bio Chem 1993;208: 387-392). In 250 μL of reaction mixture, substrate casein (0.5 mg/mL) was incubated with 0.01 unit (80-120 ng) calpain I, 20 mM dithiothreitol (DTT), 50 mM Tris-HCl (pH 7.4 at 25° C.) and 4 mM CaCl2 at 25° C. for 60 minutes. Two 100-μL aliquots were taken for Coomassie blue G250 binding analysis to quantify the remaining casein.
Compound concentrations that cause 50% inhibition (IC50) are as shown (Table I). The second rate of inactivation of calpain I for 2 compounds are also shown.
(§1) Selectivity of α-substituted Hydrazides: Calpain I and II were assayed as described in Example 1. One to 2 ng papain (papaya latex, Sigma, P3125), 1.25 μg trypsin (bovine pancreas, Sigma, T8003), 5 μg thermolysin (Bacillus thermoproteolyticus, Sigma, P1512) were assayed using 0.5 mg/mL casein as substrate in the microplate format (250 μL reaction volume), essentially a described by Buroker-Kilgore, M. and Wang K K W, Anal Biochem 1993;208: 387-392. Cathepsin B (0.002 unit, bovine spleen) was assayed with 50 mM MES (pH 5.5), 100 μM carbobenzoxy-Arg-Arg-4-methoxy-beta-naphthlamide (Cbz-Arg-Arg-MNA), inhibitor, and 2 mM DTT in 200 μL for 60 minutes at room temperature. Fifty-microliter aliquots were transferred to a fluorescence-compatible plate and then read with a Perkin-Elmer fluorometer LS-50B (excitation 340 nm and emission 425 nm). Calcineurin (bovine brain, Sigma) (5 μg, 0.8 unit) was assayed with 10 mM p-nitrophenyl phosphate in 1 mM DTT, 1 mM CaCl2, 1 mM MnCl2, […] calmodulin (CaM, if added), and 50 mM Tris-HCl (pH 7.4) at 25° C. for 60 minutes or more. Production of p-nitrophenol was monitored at 405 nm. Inhibition of these proteases are presented as IC50.

[2] = biological target: T2, Cathepsin B (Bos taurus, UniProt P07688); test: Cathepsin B assay (Cbz-Arg-Arg-MNA substrate); assay type: biochemical, bovine; conditions: pH 5.5, 60 minutes, room temperature
T2 construct: Cathepsin B (0.002 unit, bovine spleen); from tissue; host or cells: bovine spleen
Method: as §1

[3] = biological target: T3, Trypsin (Bos taurus, UniProt P00760); test: Trypsin assay, casein substrate; assay type: biochemical, bovine; conditions: 0.5 mg/mL casein
T3 construct: purchased Sigma T8003; host or cells: bovine pancreas
T3 sequence (P00760 24-246): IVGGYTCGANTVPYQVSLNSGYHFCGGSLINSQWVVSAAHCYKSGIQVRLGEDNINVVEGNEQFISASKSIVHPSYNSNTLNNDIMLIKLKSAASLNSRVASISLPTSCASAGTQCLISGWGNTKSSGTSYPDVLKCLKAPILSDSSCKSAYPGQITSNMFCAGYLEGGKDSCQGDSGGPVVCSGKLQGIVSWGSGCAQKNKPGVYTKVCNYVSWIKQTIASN
Method: as §1

[4] = biological target: T4, Calmodulin-calcineurin (Bos taurus, UniProt P48452); test: Calmodulin-calcineurin assay (p-nitrophenyl phosphate); assay type: biochemical, bovine; conditions: pH 7.4, 25° C., 60 minutes or more
T4 construct: purchased Sigma; host or cells: bovine brain
Method: as §1

[5] = test system: Fetal Rat Cerebrocortical Cultures; test: Oxygen/glucose deprivation induced LDH release from fetal rat cerebrocortical cultures; assay type: cell-based
[6] = test system: Purkinje cells in cerebellar slices; test: AMPA toxicity to Purkinje cells in cerebellar slices; assay type: cell-based, rat; conditions: 100 μM compound
Method: (ii) Neuroprotective effects of the compound of Example 5 against AMPA toxicity to Purkinje cells in cerebellar Slices: Cerebellar slices were acutely isolated from adult rats and maintained in an oxygenated bath for the duration of the experiment as described elsewhere (Caner, et al., Brain Research 1993;607: 354-356). Example 5 (100 μM) was added to the ACSF (124 mM NaCl, 3.3 mM KCl, 2 mM CaCl2, 25.7 mM NaHCO3, 2.4 mM MgSO4, 1.25 mM KH2 PO4, 10 mM glucose) 60 minutes before the addition of amino-3-hydroxy-5-methyl-4-isoxazole propionic acid (AMPA; 30 μM for 30 minutes). The slices were then allowed to recover in normal ACSF for an additional 90 minutes. Histological damage to Purkinje cells was identified and quantified as described in detail elsewhere (Caner, et al., Brain Research 1993;607: 354-356).

## O=C(CCl)NN=c1[nH]c2ccccc2n(-c2ccccc2)c1=O [Example 5, 2-Chloro-acetic acid (3-oxo-4-phenyl-3,4-dihydro-1H-quinoxalin-2-ylidene)-hydrazide]
[1]
  IC50: 590 nM
[2]
  IC50: > 200 µM
[3]
  IC50: > 200 µM
[4]
  IC50: > 500 µM
[5]; Hypoxia/Hypoglycemia, mean ± SEM (6), p < 0.001 vs Hypoxia/Hypoglycemia alone (143.81 ± 9.72), Normoxia 46.13 ± 6.08
  LDH release: 57.27 ± 8.11 Unit/mL
[5]; LDH release after 24 hours
  Resistance of neurons to oxygen/glucose deprivation: enabled the neurons to resist the oxygen/glucose deprivation for longer
[6]; AMPA 30 μM
  AMPA-induced neurotoxicity: can be ameliorated
[6]; Rattus norvegicus, purkinje, 0.5 h, AMPA 30 μM for 30 minutes, mean ± SEM (10), p < 0.005 vs AMPA alone (13.41 ± 2.34), Control 94.41 ± 0.97, read-out: % Live Purkinje Neurons
  viability at 100 µM: 51 ± 4.8%
